Measured values: patent EP1531159B1, “Peptide useful for diagnosis and therapy of tumors” (Deutsches Krebsforschungszentrum Stiftung des öffentlichen …, priority 2003, dated 2005)

Assays:
[1] = test system: human tumor cell lines (DU-145, PC-3, IMR5-75, MDA-MB-435, SW-1736, NPA-87); assay: Binding of 125I-DU-Sigi1 to human tumor cell lines
Description: (§1) The peptide DU-Sigi1 (FRPNRAQDYNTN) was prepared by chemical synthesis and labelled with ^125I. For in vitro studies, 200,000 cells (DU-145, human prostate tumor cell line; PC-3, human prostate cell line; HUVEC, human primary endothelial cells, IMR5-75, human neuroblastoma cell line, MDA-MB-435, human breast cancer cell line, SW-1736, human thyroid cancer cell line, NPA-87, human thyroid cancer cell line) were seeded into 6-well plates and cultivated for 24 hours. Then, the medium was replaced by fresh medium (without FCS) and for the plates with competitor, unlabelled peptide was added (10^-4 M) and preincubated for 30 min. Then, ^125I-labelled peptide was added to the cell culture (1-2 mio cpm/well) and incubated for 10 min. The cells were collected and washed for three times with 1 ml PBS per washing. Then, the cells were lysed with 0.3 M NaOH. Radioactivity of the lysed cells was determined with a gamma counter and radioactivity as percent applied dose per 1 million cells was calculated.

[2] = test system: HUVEC, human primary endothelial cells; assay: Binding of 125I-DU-Sigi1 to primary endothelial cells; settings: ^125I-labelled peptide, 1-2 mio cpm/well, 10 min incubation
Description: as §1

[3] = test system: DU-145 prostate tumor cells; assay: Binding kinetics of 125I-DU-Sigi1 on DU-145 cells; parameters: species or system human
Description: The peptide DU-Sigi1 (FRPNRAQDYNTN) was prepared by chemical synthesis and labelled with ^125I. 200,000 DU-145 cells (human prostate tumor cell line) were seeded into 6-well plates and cultivated for 24 hours. Then, the medium was replaced by fresh medium (without FCS). ^125I-labelled peptide was added to the cell culture (1-2 mio cpm/well) and incubated for times from 1 min to 4 h. After the incubation time the cells were collected and washed for three times with 1 ml PBS per washing. Then, the cells were lysed with 0.3 M NaOH. Radioactivity of the lysed cells was determined with a gamma counter and radioactivity as percent applied dose per 1 million cells was calculated. It could be shown that the binding of DU-Sigi1 is rapid and the highest binding rate occurs after 5 min. Then the amount of bound peptide decreases and reaches a basal level of about 1.5 % applied dose/1 mio cells.

[4] = test system: PC-3 cells (prostate tumor cell line); assay: Binding kinetics of 125I-DU-Sigi1 on PC-3 cells; parameters: species or system human; settings: data not shown
[5] = test system: DU-145 prostate tumor cells; assay: Competition assay of 125I-DU-Sigi1 with unlabeled competitor on DU-145 cells; type: binding, human; settings: for inhibition of binding of ^125I-DU-Sigi1: 10 min at 37°C
Description: The peptide DU-Sigi1 (FRPNRAQDYNTN) was prepared by chemical synthesis and labeled with ^125I. 200,000 DU-145 cells (human prostate tumor cell line) were seeded into 6-well plates and cultivated for 24 hours. Then, the medium was replaced by fresh medium (without FCS). Different competitor concentrations (unlabeled DU-Sigi1) were added to the medium 30 min before the ^125I-labeled peptide was added to the wells (1-2 mio cpm/well) and incubated for 10 min at 37°C.[…], After the incubation time the cells were collected and washed for three times with 1 ml PBS per washing. Then, the cells were lysed with 0.3 M NaOH. Radioactivity of the lysed cells was determined with a gamma counter and radioactivity as percent applied dose per 1 million cells was calculated. […] The ID50 is approx. 50 µM.

[6] = test system: PC-3 cells (prostate tumor cell line); assay: Competition assay of 125I-DU-Sigi1 with unlabeled DU-Sigi1 on PC-3 cells; type: binding, human; settings: data not shown
[7] = test system: human prostate tumor (DU-145); assay: Organ distribution of intravenously injected 131I-labeled DU-Sigi1 in tumor-bearing mice; type: in vivo, male nu/nu mice; settings: i.v., 28 mio cpm/mouse, 15 min and 45 min postinjection
Description: The peptide DU-Sigi1 (FRPNRAQDYNTN) was prepared by chemical synthesis and labeled with ^131I. ^131I labeled peptide DU-Sigi1 (FRPNRAQDYNTN) (28 mio cpm/mouse) was intravenously injected into male nu/nu mice, which subcutaneously carried a human prostate tumor (DU-145). 15 min. and 45 min, respectively, postinjection the mice were sacrificed. The organs were removed, weighed and the radioactivity was determined with a gamma counter. […] The high blood volumn might be due to the degradation of the peptide by serum peptidases and proteases.

Substance: FRPNRAQDYNTN [DU-Sigi1]
- binding of labelled peptide to tumor cells ([1]; ^125I-labelled peptide, 1-2 mio cpm/well, 10 min incubation): specifically binds to the various tumor cells
- competitive inhibition of binding ([1]; unlabelled peptide 10^-4 M, preincubated for 30 min): up to 95%
- binding of labelled peptide to primary endothelial cells [2]: not the primary endothelial cells
- basal level of bound peptide ([3]; after the binding maximum, incubation up to 4 h): about 1.5 % applied dose/1 mio cells
- time of highest binding rate ([3]; incubation times from 1 min to 4 h): 5 min
- binding kinetics compared with DU-145 cells [4]: The same results were obtained
- ID50 ([5]; unlabeled DU-Sigi1 as competitor of ^125I-DU-Sigi1): approx. 50 µM
- inhibition of binding of ^125I-DU-Sigi1 ([5]; unlabeled DU-Sigi1 concentration 10^-4, added 30 min before): more than 95%
- inhibition of binding of ^125I-DU-Sigi1 ([5]; unlabeled DU-Sigi1 concentration 10^-5, added 30 min before): more than 95%
- competition compared with DU-145 cells [6]: The same results were obtained
- accumulation in tumor versus other organs [7]: accumulates in the tumor to a higher extent than in the other organs, with the exeption of the kidney

Substance: octreotide [reference compound]
- competition with ^125I-DU-Sigi1 binding ([5]; unlabeled competitor, same concentration, data not shown): No competition
